From patent US20200188468A1, “A COATED COSTUS COMPOSITION ENRICHED WITH TRITERPENOIDS AND A METHOD OF PREPARATION OF THE SAME” (priority 2017, published 2020)

Experiments:
Type in all cases: in vivo, Wistar rats
[1] = tested on: streptozotocin-induced diabetic rats; test: Postprandial glucose levels (OGTT) of costus in various dosages; settings: STZ diabetic rats, 1 mg/kg oral
Protocol: Adult Wistar rats weighing 200-250 gm were selected at random; the animals were kept in standard animal house conditions at 24±2° C., 65% relative humidity and 12 h light/dark cycle. The animals were acclimatized for a period of five days and fed with standard pellet diet and water. Six healthy rats were separated at random from the lot and diabetes was induced in rest by a single intra-peritoneal injection of streptozotocin (STZ) at 35 mg/kg. Fasting blood sugar (FBS) was measured after seven days of STZ injection and rats having FBS more than 200 mg/dl were considered as diabetic. The diabetic rats were separated out and randomly divided into 11 groups having six rats in each. Six normal healthy rats were allocated to Group I; STZ induced diabetic rats were randomly allocated to Groups 2 to 12.
(§1) Oral glucose tolerance test (OGTT) was performed following a glucose challenge of 2 g/kg by oral gavages. It was to test the ability of body cells to absorb glucose after you ingest a given amount of sugar. Blood glucose was recorded at 30 min, 60 min, 120 min and 180 min, after the glucose challenge on day of the study.
Just after glucose challenge test a specific Doses of Sample-1 (from example 1) and Product-2 (from example 4) were administered through oral gavages. The dosages for Sample-1 and Product-1 were in a range of 25 mg/kg Body wt to 300 mg/kg Body wt. In one of the groups animals were administered with glibenclamide.
Group 2—Positive control—diabetic animals administered with glibenclamide at 1 mg/kg Body wt orally for 30 days.
Group 3—diabetic animals administered with Sample-2 at 25 mg/kg Body wt orally for 30 days.
Group 4—diabetic animals administered with Sample-2 at 50 mg/kg Body wt orally for 30 days.
Group 5—diabetic animals administered with Sample-2 at 75 mg/kg Body wt orally for 30 days.
Group 6—diabetic animals administered with Sample-2 at 100 mg/kg Body wt orally for 30 days.
Group 7—diabetic animals administered with Sample-2 at 150 mg/kg Body wt orally for 30 days.
Group 8—diabetic animals administered with Sample-2 at 300 mg/kg Body wt orally for 30 days.
Group 9—diabetic animals administered with Product-2 at 25 mg/kg Body wt orally for 30 days.
Group 10—diabetic animals administered with Product-2 at 50 mg/kg Body wt orally for 30 days.
Group 11—diabetic animals administered with Product-2 at 75 mg/kg Body wt orally for 30 days.
Group 12—diabetic animals administered with Product-2 at 100 mg/kg Body wt orally for 30 days.
Group 13—diabetic animals administered with Product-2 at 150 mg/kg Body wt orally for 30 days.

[2] = tested on: streptozotocin-induced diabetic rats; test: Fasting blood glucose level, 30 days treatment; settings: STZ diabetic rats, glibenclamide 1 mg/kg, Samples 1-3 100 mg/kg, Product-1 and -2 50 mg/kg, Product-3 10 mg/kg orally
Protocol: (§2) Adult Wistar rats weighing 200-250 gm were selected at random; the animals were kept in standard animal house conditions at 24±2° C., 65% relative humidity and 12 h light/dark cycle. After five days of acclimatisation, diabetes was induced by injecting streptozotocin 35 mg/kg dissolved in 0.1M citrate buffer of pH 4.5, intraperitoneally, as standardised in our laboratory. Five days after induction of diabetes (day 1 of the study), animals fasted for 12 hours and the fasting blood glucose level (FBG) was estimated for diagnosing diabetic rats. Animals having FBG more than 250 mg/dl were included in the study.
(§3) Six normal healthy rats were allocated to Group I; streptozotocin-induced diabetic rats were randomly allocated to Groups 2 to 9 with 6 rats in each group. The animals were treated for 30 days as per below experimental design:
(§4) Group 3—Positive control—diabetic animals administered with glibenclamide at 1 mg/kg Body wt orally for 30 days.
(§5) Group 4—diabetic animals administered with Sample 1 at 100 mg/kg Body wt orally for 30 days.
(§6) Group 5—diabetic animals administered with Sample 2 at 100 mg/kg Body wt orally for 30 days.
(§7) Group 6—diabetic animals administered with of Sample 3 at 100 mg/kg Body wt orally for 30 days.
(§8) Group 7—diabetic animals administered with Product-1 at 50 mg/kg Body wt orally for 30 days.
(§9) Group 8—diabetic animals administered with Product-2 at 50 mg/kg Body wt orally for 30 days.
(§10) Group 9—diabetic animals administered with of Product-3 at 10 mg/kg Body wt orally for 30 days.
FBG was measured on Day 0, Day 15 and Day 30. OGTT was also performed on Day 0, Day 15 and Day 30.

[3] = tested on: streptozotocin-induced diabetic rats; test: Oral glucose tolerance test on day 1, 15 and 30 of 30 days treatment; settings: STZ diabetic rats, doses as in E42
Protocol: as §2, §3, §4, §5, §6, §7, §8, §9, §10
as §1, with “30 min (PPG1),” for “30 min,”, “60 min (PPG2),” for “60 min,”, “min (PPG3)” for “min”, “180 min (PPG4),” for “180 min,”, “day 1, day 15 and day 30” for “day”

[4] = tested on: high-fat diet-induced insulin resistance rats; test: High fat diet-induced insulin resistance model (Type 2 diabetes); settings: HFD rats
Protocol: The study was designed to evaluate the effect of different fractions and compositions of costus on high fat-induced resistance Type-2 diabetic model (HFD). Adult Wistar rats were allowed free access to food and water. They were housed under identical standard conditions. The animals were kept for acclimatisation for a period of 7 days. After 7 days, the animals were randomly divided into six groups of six rats each. The normal control group was treated with normal regular diet and the rest of the animals were fed with high-fat diet for 6 weeks. After 6 weeks, Sample-1, Sample-3, and Product-2 were administered at a specific dosage as per their groups for 6 consecutive weeks. The experimental design was as follows:
as §4
Group 4—diabetic animals administered with Sample-1 at 300 mg/kg Body wt orally for 30 days.
Group 5—diabetic animals administered with Sample-3 at 100 mg/kg Body wt orally for 30 days.
Group 6—diabetic animals administered with of Product-2 at 50 mg/kg Body wt orally for 30 days.
Body weights were determined weekly. At the end of experimental period, blood samples were collected to determine plasma glucose, insulin, glycosylated haemoglobin, triglycerides, and total cholesterol, LDL, HDL and VLDL.

[5] = tested on: streptozotocin and HFD diabetic rats; test: Streptozotocin plus high fat diet Type 2 diabetes model, coated versus uncoated costus extract; settings: STZ + HFD diabetic rats
Protocol: Wistar rats were selected at random; the animals were kept in standard animal house conditions at 24±2° C., 65% relative humidity and 12 h light/dark cycle. The animals were acclimatized for a period of five days and fed with standard pellet diet and water. Fasted male Wistar rats were intraperitoneally injected with freshly prepared solution of streptozotocin (STZ) (35 mg/kg). After injection, all the animals were continued on the standard rodent diet for 2 weeks. At the end of 2 weeks after STZ injection; 1 ml of blood was collected from retro-orbital plexus of each rat. Blood was allowed to clot for 30 min the serum was separated by centrifuging at 1008 G-force for 20 min at 8.0° C. in a cold centrifuge. The serum separated from the blood of each animal was used for the estimation of glucose. All the samples were analysed calorimetrically in Autoanalyzer (MERCK MICROLAB 300) using commercial kits. The development of hyperglycaemia in these rats was thus confirmed by measuring fasting blood glucose levels. The rats with the fasting PGL of ≥200 mg dl−1 were considered diabetic and selected for further dietary manipulation. 350 g of standard rodent diet was powdered and mixed with 60 g of lard, 45 g of yolk powder, and 45 g of plantation white sugar (HFD diet). The above mixture is pelleted and used to feed the rats for 2 weeks to induce diabetic dyslipidaemia. Required amount of the diet was freshly prepared on a daily basis. At the end of 2nd week the blood was collected from each animal for determination of glucose levels as described above.
After the second fasting blood glucose estimation, at the end of 4th week, the rats were divided into 6 groups of 6 rats each: Group-1 consisted of age-matched non-diabetic normal rats that neither received streptozotocin nor the high-fat diet and served as normal; Group 2 consisted of diabetic rats without any drug treatment and served as untreated control; Group 3 consisted of diabetic rats and received standard drug, Glibenclamide. Group 4 consisted of diabetic rats and received excipients. Group 5 consisted of diabetic rats and sample 2. Group 6 consisted of diabetic rats and product 2. The high fat diet was continued for the rest of the study duration.
Group 3—Diabetic, HFD administered group treated with Glibenclamide at 2.5 mg/Kg p.o. body weight.
Group 5—Diabetic, HFD administered group treated with sample 2 for at 40 mg/kg twice daily.
Group 6—Diabetic, HFD administered group treated with product-2 at 100 mg/kg twice daily.
Body weights were determined biweekly. At the end of experimental period, blood samples were collected to determine plasma glucose, insulin, leptin, glycosylated hemoglobin, triglycerides, total cholesterol, LDL, HDL and VLDL.

[6] = end of experimental period, doses as in E59

## COc1ccc(Cl)cc1C(=O)NCCc1ccc(S(=O)(=O)NC(=O)NC2CCCCC2)cc1 [glibenclamide]
[1]; 30 min after 2 g/kg glucose
  Postprandial glucose level 30 min: 294 mg/dL
[1]; 60 min after 2 g/kg glucose
  Postprandial glucose level 60 min: 170 mg/dL
[1]; 120 min after 2 g/kg glucose
  Postprandial glucose level 120 min: 127 mg/dL
[1]; 180 min after 2 g/kg glucose
  Postprandial glucose level 180 min: 101 mg/dL
[2]; day 0
  Fasting blood glucose level 0th day: 388 mg/dL
[2]; day 15
  Fasting blood glucose level 15th day: 266 mg/dL
[2]; day 30
  Fasting blood glucose level 30th day: 142 mg/dL
[3]; Day 1, 30 min after 2 g/kg glucose
  PPG 30 min, Day 1: 294 mg/dL
[3]; Day 1, 60 min after 2 g/kg glucose
  PPG 60 min, Day 1: 232 mg/dL
[3]; Day 1, 120 min after 2 g/kg glucose
  PPG 120 min, Day 1: 226 mg/dL
[3]; Day 1, 180 min after 2 g/kg glucose
  PPG 180 min, Day 1: 158 mg/dL
[3]; Day 15, 30 min after 2 g/kg glucose
  PPG 30 min, Day 15: 285 mg/dL
[3]; Day 15, 60 min after 2 g/kg glucose
  PPG 60 min, Day 15: 225 mg/dL
[3]; Day 15, 120 min after 2 g/kg glucose
  PPG 120 min, Day 15: 219 mg/dL
[3]; Day 15, 180 min after 2 g/kg glucose
  PPG 180 min, Day 15: 153 mg/dL
[3]; Day 30, 30 min after 2 g/kg glucose
  PPG 30 min, Day 30: 276 mg/dL
[3]; Day 30, 60 min after 2 g/kg glucose
  PPG 60 min, Day 30: 218 mg/dL
[3]; Day 30, 120 min after 2 g/kg glucose
  PPG 120 min, Day 30: 212 mg/dL
[3]; Day 30, 180 min after 2 g/kg glucose
  PPG 180 min, Day 30: 148 mg/dL
[4]; [6]
  Blood glucose: 142 mg/dL
  Glycosylated Hb: 0.5 % of total Hb
  HDL: 27 mg/dL
  LDL: 55 mg/dL
  TC: 91.4 mg/dL
  TG: 47 mg/dL
  VLDL: 9.4 mg/dL
[4]; serum, end of experimental period, doses as in E59
  Insulin: 1.7 ng/mL
[4]; week 0, glibenclamide 1 mg/kg, Sample-1 300 mg/kg, Sample-3 100 mg/kg, Product-2 50 mg/kg orally
  Body weight, week 0: 216 grams
[4]; week 2, doses as in E59
  Average Body weight at weekly interval, week 2: 259 grams
[4]; week 3, doses as in E59
  Average Body weight at weekly interval, week 3: 274 grams
[4]; week 4, doses as in E59
  Average Body weight at weekly interval, week 4: 280 grams
[4]; week 5, doses as in E59
  Average Body weight at weekly interval, week 5: 270 grams
[4]; week 6, doses as in E59
  Average Body weight at weekly interval, week 6: 248 grams
[5]; after 28 days, doses as in E92
  Glycosylated Hb: 0.5 % of total Hb
  HDL: 25 mg/dL
  LDL: 92 mg/dL
  TC: 136.4 mg/dL
  TG: 97 mg/dL
  VLDL: 19.4 mg/dL
[5]; interval 0, Glibenclamide 2.5 mg/kg p.o., sample 2 40 mg/kg, product-2 100 mg/kg twice daily
  Body weight at biweekly interval, 0: 168 grams
[5]; interval 2, doses as in E92
  Body weight at biweekly interval, 2: 174 grams
[5]; interval 4, doses as in E92
  Body weight at biweekly interval, 4: 180 grams
[5]; interval 6, doses as in E92
  Body weight at biweekly interval, 6: 187 grams
[5]; interval 8, doses as in E92
  Body weight at biweekly interval, 8: 192 grams
[5]; serum, after 28 days, doses as in E92
  Insulin: 1.58 ng/mL
